# From publication PMC7105311, “Structure and function of Bs164 β-mannosidase from Bacteroides salyersiae the founding member of glycoside hydrolase family GH164” (The Journal of Biological Chemistry, 2019)
# Read-outs that look alike come from different tables or passages of the source.
# Target: T1, Bs164 (Bacteroides salyersiae, UniProt I9SUA3)
# T1 construct: gene HMPREF1071_03408; tag cut by 3C protease for kinetics, His6-tagged for crystals
# T1 sequence (I9SUA3 22-673): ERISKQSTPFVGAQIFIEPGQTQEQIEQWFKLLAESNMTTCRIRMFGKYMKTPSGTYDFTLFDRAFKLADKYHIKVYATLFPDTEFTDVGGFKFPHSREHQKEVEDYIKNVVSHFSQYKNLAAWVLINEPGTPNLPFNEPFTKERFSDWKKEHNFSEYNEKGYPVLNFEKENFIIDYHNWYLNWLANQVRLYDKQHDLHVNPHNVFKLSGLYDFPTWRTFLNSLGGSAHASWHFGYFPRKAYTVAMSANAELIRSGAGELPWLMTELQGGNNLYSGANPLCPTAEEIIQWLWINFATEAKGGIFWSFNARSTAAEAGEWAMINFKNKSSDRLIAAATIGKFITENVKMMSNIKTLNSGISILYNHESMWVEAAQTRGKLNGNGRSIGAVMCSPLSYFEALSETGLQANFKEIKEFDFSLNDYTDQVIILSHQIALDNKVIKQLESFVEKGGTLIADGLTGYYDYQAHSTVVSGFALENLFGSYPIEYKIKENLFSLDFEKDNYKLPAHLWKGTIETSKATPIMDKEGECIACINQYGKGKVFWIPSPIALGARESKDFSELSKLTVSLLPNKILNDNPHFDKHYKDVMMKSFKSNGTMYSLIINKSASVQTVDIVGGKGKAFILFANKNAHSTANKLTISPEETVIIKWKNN
# Assay: inhibition of pNP β-Man hydrolysis, absorbance, competitive model fit
# Format: biochemical
# Description: inhibition of pNP β-Man hydrolysis, absorbance, competitive model fit on Bs164 | Mannoimidazole and noeuromycin act as competitive inhibitors of Bs164 with inhibition constants (Ki)
SMILES,Ki [µM],"Ki (competitive, substrate pNP β-Man, 80 mM MES pH 5.5, 160 mM NaCl, 25 °C, crystal structure 2.06 Å, -1 subsite) [µM]"
OC[C@@H]1[C@@H](O)[C@H](O)[C@H](O)c2nccn21 [mannoimidazole],470 ± 60,–
OC[C@H]1CN[C@@H](O)[C@@H](O)[C@@H]1O [noeuromycin],–,0.34 ± 0.04
